According to US9156872B2, “2′-azido substituted nucleoside derivatives and methods of use thereof for the treatment of viral diseases” (priority 2011, dated 2015):

System: HCV replicon cells
Experiment: Cell-based HCV replicon assay (replicon RNA by Taqman real time PCR)
Settings: Hepatitis C virus, 72 h, HCV replicon 1b, cells harvested on day 3; read-out: 1b EC50

Compound | EC50 [µM]
CCCC(CCC)COC(=O)[C@H](C)NP(=O)(O)OC[C@H]1O[C@@H](n2ccc(N)nc2=O)[C@](C)(N=[N+]=[N-])[C@@H]1O [Compound 318] | 100

Same assay, conditions: Hepatitis C virus, 72 h, read-out: 1b EC50

Compound | EC50 [µM]
COc1nc(N)nc2c1ncn2[C@@H]1O[C@H](COP(=O)(N[C@@H](C)C(=O)OCC(C)C)Oc2ccc(Cl)cc2)[C@@H](O)[C@@]1(C)N=[N+]=[N-] (stereo partly drawn) [Compound 285] | 1.1
C[C@H](NP(=O)(OC[C@H]1O[C@@H](n2ccc(=O)[nH]c2=O)[C@](C)(N=[N+]=[N-])[C@@H]1O)Oc1ccccc1)C(=O)OCc1ccccc1 (stereo partly drawn) [Compound 299] | 5.6
C[C@H](NP(=O)(OC[C@H]1O[C@@H](n2ccc(=O)[nH]c2=O)[C@](C)(N=[N+]=[N-])[C@@H]1O)Oc1ccc(Cl)cc1)C(=O)OCc1ccccc1 (stereo partly drawn) [Compound 304] | 60
C[C@H](NP(=O)(OC[C@H]1O[C@@H](n2ccc(=O)[nH]c2=O)[C@](C)(N=[N+]=[N-])[C@@H]1O)Oc1ccc2c(c1)OCO2)C(=O)OCc1ccccc1 (stereo partly drawn) [Compound 305] | 1.2
CCOc1nc(N)nc2c1ncn2[C@@H]1O[C@H](COP(=O)(N[C@@H](C)C(=O)OC2CCCCC2)Oc2ccc(Cl)cc2)[C@@H](O)[C@@]1(C)N=[N+]=[N-] (stereo partly drawn) [Compound 307] | 33
CCOc1nc(N)nc2c1ncn2[C@@H]1O[C@H](COP(=O)(N[C@@H](C)C(=O)OC)Oc2ccc(Cl)c(Cl)c2)[C@@H](O)[C@@]1(C)N=[N+]=[N-] (stereo partly drawn) [Compound 308] | 2.1
CCCC(CCC)COC(=O)[C@H](C)NP(=O)(OC[C@H]1O[C@@H](n2ccc(N)nc2=O)[C@](C)(N=[N+]=[N-])[C@@H]1O)Oc1ccccc1 (stereo partly drawn) [Compound 317] | 39
C[C@H](NP(=O)(OC[C@H]1O[C@@H](n2ccc(=O)[nH]c2=O)[C@](C)(N=[N+]=[N-])[C@@H]1O)Oc1ccc(Cl)cc1)C(=O)OC1CCCCC1 (stereo partly drawn) [Compound 324] | 4.3
CCCC(CCC)COC(=O)[C@H](C)NP(=O)(OC[C@H]1O[C@@H](n2ccc(=O)[nH]c2=O)[C@](C)(N=[N+]=[N-])[C@@H]1O)Oc1ccccc1 (stereo partly drawn) [Compound 328] | 2.1
CCOc1nc(N)nc2c1ncn2[C@@H]1O[C@H](COP(=O)(N[C@@H](C)C(=O)OC(C)C)Oc2ccc(F)cc2)[C@@H](O)[C@@]1(C)N=[N+]=[N-] (stereo partly drawn) [Compound 347] | 0.7
CCOc1nc(N)nc2c1ncn2[C@@H]1O[C@H](COP(=O)(N[C@@H](C)C(=O)OC(C)C)Oc2ccc(Cl)c(Cl)c2)[C@@H](O)[C@@]1(C)N=[N+]=[N-] (stereo partly drawn) [Compound 348] | 5
CCOC(=O)[C@H](C)NP(=O)(OC[C@H]1O[C@@H](n2cnc3c(OCC)nc(N)nc32)[C@](C)(N=[N+]=[N-])[C@@H]1O)Oc1ccccc1Cl (stereo partly drawn) [Compound 349] | 2
CCOc1nc(N)nc2c1ncn2[C@@H]1O[C@H](COP(=O)(N[C@@H](C)C(=O)OCC(C)(C)C)Oc2ccccc2Cl)[C@@H](O)[C@@]1(C)N=[N+]=[N-] (stereo partly drawn) [Compound 357] | 100
CCCCOC(=O)[C@H](C)NP(=O)(OC[C@H]1O[C@@H](n2cnc3c(OCC)nc(N)nc32)[C@](C)(N=[N+]=[N-])[C@@H]1O)Oc1ccc(F)cc1 (stereo partly drawn) [Compound 366] | 0.4
CCCCOC(=O)[C@H](C)NP(=O)(OC[C@H]1O[C@@H](n2ccc(=O)[nH]c2=O)[C@](C)(N=[N+]=[N-])[C@@H]1O)Oc1ccc(F)cc1 (stereo partly drawn) [Compound 367] | 3.3
CCCCOC(=O)[C@H](C)NP(=O)(OC[C@H]1O[C@@H](n2cnc3c(OCC)nc(N)nc32)[C@](C)(N=[N+]=[N-])[C@@H]1O)Oc1ccc(Cl)cc1 (stereo partly drawn) [Compound 368] | 0.08
CCCCOC(=O)[C@H](C)NP(=O)(OC[C@H]1O[C@@H](n2ccc(=O)[nH]c2=O)[C@](C)(N=[N+]=[N-])[C@@H]1O)Oc1ccc(Cl)cc1 (stereo partly drawn) [Compound 369] | 0.5
CCCCOC(=O)[C@H](C)NP(=O)(OC[C@H]1O[C@@H](n2cnc3c(OCC)nc(N)nc32)[C@](C)(N=[N+]=[N-])[C@@H]1O)Oc1ccc(Cl)c(Cl)c1 (stereo partly drawn) [Compound 370] | 10
CCCCOC(=O)[C@H](C)NP(=O)(OC[C@H]1O[C@@H](n2cnc3c(OCC)nc(N)nc32)[C@](C)(N=[N+]=[N-])[C@@H]1O)Oc1ccc2c(c1)OCO2 (stereo partly drawn) [Compound 371] | 1.4
CCCCOC(=O)[C@H](C)NP(=O)(OC[C@H]1O[C@@H](n2ccc(=O)[nH]c2=O)[C@](C)(N=[N+]=[N-])[C@@H]1O)Oc1ccc(Cl)c(Cl)c1 (stereo partly drawn) [Compound 372] | 6
CCCOC(=O)[C@H](C)NP(=O)(OC[C@H]1O[C@@H](n2ccc(=O)[nH]c2=O)[C@](C)(N=[N+]=[N-])[C@@H]1O)Oc1cccc2ccccc12 (stereo partly drawn) [Compound 374] | 5.6
CCCCOC(=O)[C@H](C)NP(=O)(OC[C@H]1O[C@@H](n2ccc(=O)[nH]c2=O)[C@](C)(N=[N+]=[N-])[C@@H]1O)Oc1ccccc1Cl (stereo partly drawn) [Compound 377] | 6.8
COC(=O)[C@H](C)NP(=O)(OC[C@H]1O[C@@H](n2ccc(=O)[nH]c2=O)[C@](C)(N=[N+]=[N-])[C@@H]1O)Oc1cc(C)ccc1C(C)C (stereo partly drawn) [Compound 379] | 1.2
COC(=O)[C@H](C)NP(=O)(OC[C@H]1O[C@@H](n2cnc3c(NC4CC4)nc(N)nc32)[C@](C)(N=[N+]=[N-])[C@@H]1O)Oc1ccccc1Cl (stereo partly drawn) [Compound 385] | 1.4
COC(=O)[C@H](C)NP(=O)(OC[C@H]1O[C@@H](n2cnc3c(NC4CC4)nc(N)nc32)[C@](C)(N=[N+]=[N-])[C@@H]1O)Oc1ccccc1 (stereo partly drawn) [Compound 386] | 5.3
CCOC(=O)[C@H](C)NP(=O)(OC[C@H]1O[C@@H](n2cnc3c(NC4CC4)nc(N)nc32)[C@](C)(N=[N+]=[N-])[C@@H]1O)Oc1ccccc1 (stereo partly drawn) [Compound 387] | 1.9
COC(=O)[C@H](C)NP(=O)(OC[C@H]1O[C@@H](n2cnc3c(N4CCC4)nc(N)nc32)[C@](C)(N=[N+]=[N-])[C@@H]1O)Oc1ccccc1Cl (stereo partly drawn) [Compound 388] | 1.6
COC(=O)[C@H](C)NP(=O)(OC[C@H]1O[C@@H](n2cnc3c(N4CCC4)nc(N)nc32)[C@](C)(N=[N+]=[N-])[C@@H]1O)Oc1ccccc1 (stereo partly drawn) [Compound 390] | 3.4
CCOC(=O)[C@H](C)NP(=O)(OC[C@H]1O[C@@H](n2cnc3c(N4CCC4)nc(N)nc32)[C@](C)(N=[N+]=[N-])[C@@H]1O)Oc1ccccc1 (stereo partly drawn) [Compound 391] | 1.5
CC(C)OC(=O)[C@H](C)NP(=O)(OC[C@H]1O[C@@H](n2cnc3c(N4CCC4)nc(N)nc32)[C@](C)(N=[N+]=[N-])[C@@H]1O)Oc1ccccc1 (stereo partly drawn) [Compound 392] | 5.6

Same assay, conditions: read-out: 1b EC50

Compound | EC50 [µM]
C[C@H](NP(=O)(OC[C@H]1O[C@@H](n2ccc(=O)[nH]c2=O)[C@](C)(N=[N+]=[N-])[C@@H]1O)Oc1ccc2c(c1)OCO2)C(=O)OCc1ccccc1 (stereo partly drawn) [Compound 306] | 1.3
CCOC(=O)[C@H](C)NP(=O)(OC[C@H]1O[C@@H](n2ccc(=O)[nH]c2=O)[C@](C)(N=[N+]=[N-])[C@@H]1O)Oc1ccc(Cl)cc1 (stereo partly drawn) [Compound 323] | 5.3
COC(=O)[C@H](C)NP(=O)(OC[C@H]1O[C@@H](n2ccc(=O)[nH]c2=O)[C@](C)(N=[N+]=[N-])[C@@H]1O)Oc1ccc(Cl)cc1 (stereo partly drawn) [Compound 325] | 4
C[C@H](NP(=O)(OC[C@H]1O[C@@H](n2ccc(N)nc2=O)[C@](C)(N=[N+]=[N-])[C@@H]1O)Oc1ccccc1)C(=O)OC1CCCC1 (stereo partly drawn) [Compound 336] | 15
COC(=O)[C@H](C)NP(=O)(OC[C@H]1O[C@@H](n2cnc3c(N4CCC4)nc(N)nc32)[C@](C)(N=[N+]=[N-])[C@@H]1O)Oc1ccccc1Cl (stereo partly drawn) [Compound 389] | 2.3
